Converted amounts (≈) assume the structure as drawn. Where two headings read alike, the source gives them in different places.
Experiments:
[1] = test system: Pseudomonas aeruginosa K-13; assay: infection-preventive effects in mice (intraperitoneal infection, survival); type: in vivo, JCL:JCR type male mice; details: K13, ip, 168 h
Escherichia coli ML 4707 [2] = assay: as above; type: in vivo, JCL:JCR type male mice; details: ML4707, ip, 168 h, E. coli ML 4707, 1.1 × 10^6 cells/mouse i.p., no mucin, compound hypodermically 1 hour after infection, 7-day survival
[3] = test system: Serratia marcescens No. 16-2; assay: minimum inhibitory concentration, agar plate dilution method; type: cell-based
Proteus vulgaris No. 33 = assay: as above; type: cell-based
Pseudomonas cepacia 23 = assay: as above; type: cell-based
[4] = test system: Pseudomonas aeruginosa Y-1; assay: infection-preventive effects in mice (intraperitoneal infection, survival); type: in vivo, JCL:JCR type male mice; details: Y1, ip, 168 h
[5] = test system: Staphylococus aureus FDA 209-P JC-1; assay: minimum inhibitory concentration, agar plate dilution method; type: cell-based; details: Staphylococcus aureus, FDA209; S. aureus FDA 209-P JC-1; inoculated amount of cells 10^6 CFU/ml; Muller-Hinton agar; read-out: minimum inhibitory concentration (M.I.C.)
[6] = test system: Klebsiella pneumoniae No. 42; assay: as above; type: cell-based
[7] = test system: Staphyloccocus aureus Smith; assay: infection-preventive effects in mice (intraperitoneal infection, survival); type: in vivo, JCL:JCR type male mice; details: Staphylococcus aureus, ip, 168 h; S. aureus Smith, 7.7 × 10^7 cells/mouse i.p., no mucin; compound hypodermically 1 hour after infection; 7-day survival
[8] = test system: Pseudomonas aeruginosa Y-1; assay: minimum inhibitory concentration, agar plate dilution method; type: cell-based
[9] = test system: Acinetobacter calcoaceticus No. 4; assay: as above; type: cell-based
[10] = test system: Enterobacter cloacae Nek 39; assay: as above; type: cell-based
Escherichia coli ML 4707 [11] = assay: as above; type: cell-based; details: ML4707, E. coli ML 4707, inoculated amount of cells 10^6 CFU/ml, Muller-Hinton agar, read-out: minimum inhibitory concentration (M.I.C.)
[12] = test system: Pseudomonas aeruginosa K-13; assay: as above; type: cell-based
[13] = P. aeruginosa K-13, 3.0 × 10^4 cells/mouse i.p., with mucin, compound hypodermically 1 hour after infection, 7-day survival, read-out: ED50
[14] = NO.162, S. marcescens No. 16-2, inoculated amount of cells 10^6 CFU/ml, Muller-Hinton agar, read-out: minimum inhibitory concentration (M.I.C.)
[15] = Burkholderia cepacia, P. cepacia 23, inoculated amount of cells 10^6 CFU/ml, Muller-Hinton agar, read-out: minimum inhibitory concentration (M.I.C.)
[16] = P. aeruginosa Y-1, 4.0 × 10^5 cells/mouse i.p., with mucin, compound hypodermically 1 hour after infection, 7-day survival, read-out: ED50
[17] = K. pneumoniae No. 42, inoculated amount of cells 10^6 CFU/ml, Muller-Hinton agar, read-out: minimum inhibitory concentration (M.I.C.)
[18] = Y1, P. aeruginosa Y-1, inoculated amount of cells 10^6 CFU/ml, Muller-Hinton agar, read-out: minimum inhibitory concentration (M.I.C.)
[19] = A. calcoaceticus No. 4, inoculated amount of cells 10^6 CFU/ml, Muller-Hinton agar, read-out: minimum inhibitory concentration (M.I.C.)
[20] = NEK39, E. cloacae Nek 39, inoculated amount of cells 10^6 CFU/ml, Muller-Hinton agar, read-out: minimum inhibitory concentration (M.I.C.)
[21] = K13, P. aeruginosa K-13, inoculated amount of cells 10^6 CFU/ml, Muller-Hinton agar, read-out: minimum inhibitory concentration (M.I.C.)
[22] = P. vulgaris No. 33, inoculated amount of cells 10^6 CFU/ml, Muller-Hinton agar, read-out: minimum inhibitory concentration (M.I.C.)

SMILES | ED50 (Escherichia coli ML 4707 [2]) [mg/kg] | MIC [5] [mg/L] | ED50 [7] [mg/kg] | MIC (Escherichia coli ML 4707 [11]) [mg/L] | ED50 [1, 13] [mg/kg] | MIC [3, 14] [mg/L] | MIC (Pseudomonas cepacia 23; [15]) [mg/L] | ED50 [4, 16] [mg/kg] | MIC [6, 17] [mg/L] | MIC [8, 18] [mg/L] | MIC [9, 19] [mg/L] | MIC [10, 20] [mg/L] | MIC [12, 21] [mg/L] | MIC (Proteus vulgaris No. 33; [22]) [mg/L] | further results
CC(C)(O/N=C(\C(=O)N[C@@H]1C(=O)N2C(C(=O)[O-])=C(C[n+]3ccccc3)CS[C@H]12)c1csc(N)n1)C(=O)O [CAZ, ceftazidime, reference compound] | 0.73 | 12.5 (≈ 22.9 µM) | 17 | 0.2 (≈ 0.366 µM) | – | – | – | – | – | – | – | – | – | – | ED50 [1]: 31 mg/kg; MIC ([3]; NO.162, read-out: minimum inhibitory concentration (M.I.C.)): 1.56 mg/L (≈ 2.85 µM); MIC (Proteus vulgaris No. 33; NO.33, read-out: minimum inhibitory concentration (M.I.C.)): 0.1 mg/L (≈ 0.183 µM); MIC (Pseudomonas cepacia 23; Burkholderia cepacia, 23, read-out: minimum inhibitory concentration (M.I.C.)): 1.56 mg/L (≈ 2.85 µM); ED50 [4]: 16 mg/kg; MIC ([6]; NO.42, read-out: minimum inhibitory concentration (M.I.C.)): 0.39 mg/L (≈ 0.714 µM); MIC ([8]; Y1, read-out: minimum inhibitory concentration (M.I.C.)): 1.56 mg/L (≈ 2.85 µM); MIC ([9]; NO.4, read-out: minimum inhibitory concentration (M.I.C.)): 6.25 mg/L (≈ 11.4 µM); MIC ([10]; NEK39, read-out: minimum inhibitory concentration (M.I.C.)): 1.56 mg/L (≈ 2.85 µM); MIC ([12]; K13, read-out: minimum inhibitory concentration (M.I.C.)): 3.13 mg/L (≈ 5.73 µM)
NC(=O)c1cc[n+](CC2=C(C(=O)O)N3C(=O)[C@@H](NC(=O)[C@@H](c4ccccc4)S(=O)(=O)[O-])[C@H]3SC2)cc1 [CFS, cefsulodin, reference compound] | > 100 | 3.13 (≈ 5.88 µM) | – | 50 (≈ 93.9 µM) | 39 | > 100 | > 100 | 13 | > 100 | 1.56 (≈ 2.93 µM) | 50 (≈ 93.9 µM) | > 100 | 3.13 (≈ 5.88 µM) | – | –
CO/N=C(\C(=O)N[C@@H]1C(=O)N2C(C(=O)O)=C(COC(C)=O)CS[C@H]12)c1csc(N)n1 [CTX, cefotaxime, reference compound] | 0.095 | 3.13 (≈ 6.87 µM) | 3.1 | ≤ 0.025 | > 100 | 6.25 (≈ 13.7 µM) | 3.13 (≈ 6.87 µM) | > 200 | 0.1 (≈ 0.22 µM) | 12.5 (≈ 27.4 µM) | 25 (≈ 54.9 µM) | 3.13 (≈ 6.87 µM) | 25 (≈ 54.9 µM) | 0.05 (≈ 0.11 µM) | –
Cc1cc(SCC2=C(C(=O)O)N3C(=O)[C@@H](NC(=O)/C(=N\OCc4cc(=O)c(O)cn4O)c4csc(N)n4)[C@H]3SC2)n2nc(C(=O)O)nc2n1 [Example 4, (6R, 7R)-7-[(Z)-2-(2-aminothiazol-4-yl)-2-(1,5-dihydroxy-4-pyridon-2-ylmethoxyimino)acetamido]-3(2-carboxy-5-methyl-s-triazolo[1,5-a]pyrimidin-7-ylthiomethyl)-3-cephem-4-carboxylic acid] | 0.16 | 12.5 (≈ 17.1 µM) | 8.7 | 0.1 (≈ 0.137 µM) | 12 | 0.39 (≈ 0.534 µM) | 0.2 (≈ 0.274 µM) | 4 | 0.2 (≈ 0.274 µM) | 0.39 (≈ 0.534 µM) | 12.5 (≈ 17.1 µM) | 0.39 (≈ 0.534 µM) | 0.2 (≈ 0.274 µM) | 0.1 (≈ 0.137 µM) | –
Cn1nnnc1SCC1=C(C(=O)O)N2C(=O)[C@@H](NC(=O)/C(=N\OCc3cc(=O)c(O)cn3O)c3csc(N)n3)[C@H]2SC1 [Example 5, (6R, 7R)-7-[(Z)-2-(2-aminothiazol-4-yl)-2-(1,5-dihydroxy-4-pyridon-2-ylmethoxyimino)acetamido]-3(1-methyl-1H-tetrazol-5-ylthiomethyl)-3-cephem-4carboxylic acid] | 0.12 | 50 (≈ 78.5 µM) | – | ≤ 0.025 | 18.9 | 0.39 (≈ 0.613 µM) | 0.05 (≈ 0.0785 µM) | – | ≤ 0.025 | 0.1 (≈ 0.157 µM) | 1.56 (≈ 2.45 µM) | 0.39 (≈ 0.613 µM) | 0.1 (≈ 0.157 µM) | ≤ 0.025 | –
Nc1nc(/C(=N/OCc2cc(=O)c(O)cn2O)C(=O)N[C@@H]2C(=O)N3C(C(=O)O)=C(CSc4nnnn4CCO)CS[C@H]23)cs1 [Example 6] | 0.13 | 25 (≈ 37.5 µM) | 42 | ≤ 0.025 | 4.6 | 0.39 (≈ 0.585 µM) | 0.1 (≈ 0.15 µM) | 1.4 | 0.05 (≈ 0.075 µM) | 0.1 (≈ 0.15 µM) | 3.13 (≈ 4.69 µM) | 0.78 (≈ 1.17 µM) | 0.2 (≈ 0.3 µM) | 0.05 (≈ 0.075 µM) | –
C[n+]1ccc(SCC2=C(C(=O)[O-])N3C(=O)[C@@H](NC(=O)/C(=N\OCc4cc(=O)c(O)cn4O)c4csc(N)n4)[C@H]3SC2)cc1 [Example 18, (6R, 7R)-7-[(Z)-2-(2-aminothiazol-4-yl)-2-(1,5-dihydroxy-4-pyridon-2-ylmethoxyimino)acetamido]-3-(1-methylpyridinium-4-ylthiomethyl)-3-cephem-4-carboxylat] | 0.034 | 6.25 (≈ 9.68 µM) | 2.9 | ≤ 0.025 | 13 | 0.78 (≈ 1.21 µM) | 0.2 (≈ 0.31 µM) | 2 | 0.05 (≈ 0.0774 µM) | 0.2 (≈ 0.31 µM) | 3.13 (≈ 4.85 µM) | 0.39 (≈ 0.604 µM) | 0.78 (≈ 1.21 µM) | 0.1 (≈ 0.155 µM) | –
C[n+]1ccc(SCC2=C(C(=O)[O-])N3C(=O)[C@@H](NC(=O)/C(=N\OCc4cc(=O)c(O)cn4O)c4csc(N)n4)[C@H]3SC2)c2c1CCC2 [Example 19, (6R, 7R)-7-[(Z)-2-(2-aminothiazol-4-yl)-2-(1,5-dihydroxy-4-pyridon-2-ylmethoxyimino)acetamido]-3-(2,3-cyclopenteno-1-methylpyridinium-4-ylthiomethy)-3-cephem-4-carboxylate] | 0.077 | 12.5 (≈ 18.2 µM) | – | 0.05 (≈ 0.0729 µM) | 9.6 | 1.56 (≈ 2.27 µM) | 0.39 (≈ 0.569 µM) | 7.8 | 0.1 (≈ 0.146 µM) | 0.78 (≈ 1.14 µM) | 6.25 (≈ 9.11 µM) | 0.2 (≈ 0.292 µM) | 1.56 (≈ 2.27 µM) | 0.2 (≈ 0.292 µM) | –

— patent publication US4822786A, “Cephalosporin compounds, and antibacterial agents” (Kaken Pharmaceutical Co., Ltd., priority 1986, dated 1989)
